The values that follow come from PubChem BioAssay AID588764 (Broad Institute, 2011).

Each structure is given as a SMILES string. Results filed as inconclusive are left out. Activity calls are given as the source filed them. No rule for the calls is given here.

The target of this experiment is Histone acetyltransferase RTT109 (Candida albicans (strain SC5314 / ATCC MYA-2876)) (UniProt Q5AAJ8). The experiment in a line: C. albicans Rtt109 HAT inhibition curves – biochemical, cherry-picked hits, plate reader, dose response (AID 588764). The note with it: Rtt109/Vps75 HAT activity; for activity change, negative = inhibition: at 19.5 µM (top of the series).
Sequence of Histone acetyltransferase RTT109 (Candida albicans (strain SC5314 / ATCC MYA-2876)) (Q5AAJ8 whole entry, looked up): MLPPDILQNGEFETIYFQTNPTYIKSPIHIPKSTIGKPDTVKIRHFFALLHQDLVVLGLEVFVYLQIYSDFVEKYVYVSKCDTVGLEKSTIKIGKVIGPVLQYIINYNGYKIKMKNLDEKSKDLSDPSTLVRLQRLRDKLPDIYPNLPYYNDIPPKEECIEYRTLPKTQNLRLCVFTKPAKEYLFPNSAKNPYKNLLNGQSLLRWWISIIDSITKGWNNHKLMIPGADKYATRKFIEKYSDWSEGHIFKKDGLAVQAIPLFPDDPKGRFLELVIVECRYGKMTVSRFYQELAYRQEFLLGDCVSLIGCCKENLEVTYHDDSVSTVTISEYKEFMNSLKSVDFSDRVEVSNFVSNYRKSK

As to `Cc1ccccc1C(=O)NC(NC(=S)Nc1ccc(S(N)(=O)=O)cc1)C(Cl)(Cl)Cl` (centres undefined), the “activity change, negative = inhibition” value was “inactive”.
The term AC50 denotes the midpoint of the concentration-response curve, whichever way the signal moves. As for `Oc1cc2c(cc1O)C1c3ccc(O)c(O)c3OCC1(O)C2` (centres undefined), the AC50 was 6.08 µM.
On to `CCCCc1ccc(-n2c(Cc3cccs3)n[nH]c2=S)cc1`, for which the “activity change, negative = inhibition” value is “inactive”.
As for `CCc1ccccc1NC(=O)C1CCN(C(=O)c2ccc([N+](=O)[O-])cc2)CC1`, the “activity change, negative = inhibition” value is “inactive”.
Still for that read-out and setting: for `COc1ccc(C(=O)NNC(=O)c2ccncc2)cc1` the value was “inactive”; for `C#CCOCCOCCOCCNc1nc(N2CCN(C(=O)[C@H](CCCN=C(N)N)n3cc(C(N)[C@@H](C)CC)nn3)CC2)nc(N2CCN(C(=O)[C@H](CCCCN)n3cc([C@@H](N)CC(N)=O)nn3)CC2)n1` (some centres undefined), “inactive”.
`C[C@H]1CC[C@H]2NCCN[C@H]2C1`: the “activity change, negative = inhibition” value was “inactive”.
With `COc1cccc(-c2nn(C)c3sc(C(=O)N4CCN(c5ccccn5)CC4)cc23)c1`, the “activity change, negative = inhibition” value is “inactive”.
`N#Cc1c(Nc2ccccc2)s[nH]c1=O`: the AC50 is 5.84 µM.
On to `O=c1c2ccccc2[se]n1-c1ccccc1`, for which the AC50 is 1.55 µM.
In the case of `O=C(Nc1ccc(Cl)c(S(=O)(=O)N2CCCCC2)c1)C1=COCCO1`, the “activity change, negative = inhibition” value is “inactive”.
As for `O=C(CSc1n[nH]c(-c2ccccc2Cl)n1)NC1CCCCC1`, the “activity change, negative = inhibition” value was “inactive”.
`C=CCNc1nnc(SC2CC(=O)N(c3ccc(OC)cc3)C2=O)s1` (centres undefined): the AC50 is 13.4 µM.
With `O=C(CN1CCCc2ccccc21)NCc1ccc2c(c1)OCO2`, the “activity change, negative = inhibition” value is “inactive”.
Regarding `CCN(CC)CCOc1ccc2c(c1)C(=NNC(=O)c1ccccn1)c1cc(OCCN(CC)CC)ccc1-2`, the “activity change, negative = inhibition” value is “inactive”.
On to `COC(=O)c1c(NC(=O)C2CC(C)=C(C)CC2C(=O)O)sc2c1CCCCC2` (centres undefined), for which the “activity change, negative = inhibition” value is “inactive”.
On the same count and under the same terms, for `CC(=O)Nc1nc(-c2ccccc2)c(-c2ccccc2)o1` the value was “inactive”.
Same read-out and setting: for `COC(=O)c1cc2c(ccn2-c2ccc(F)cc2)n1CC(=O)C(C)(C)C` the value was “inactive”; for `COc1ccccc1NC1=C(Cl)C(=O)N(C2CCCCC2)C1=O`, “inactive”.
With `CN(C)S(=O)(=O)n1cc(/C=C(\NC(=O)c2ccccc2)C(=O)N2CCCC2)c2ccccc21`, the “activity change, negative = inhibition” value is “inactive”.
With `O=[N+]([O-])c1ccc(Sc2cccc[n+]2[O-])c2nonc12`, the AC50 was 11.6 µM.
Turning to `O=C(Nc1ccc(Oc2cccnc2)cc1)C1CCN(Cc2cc(Cl)ccc2O)CC1`, the “activity change, negative = inhibition” value is “inactive”.
Turning to `CCc1sc(C(=O)Nc2cccc(C(C)=O)c2)cc1C`, the “activity change, negative = inhibition” value was “inactive”.
For `Cc1ccccc1N1C(S)=C(C#N)C(=O)NC1c1cccs1` (centres undefined), the AC50 was 17.7 µM.
As for `O=C(/C=C/Nc1ccc([N+](=O)[O-])cc1Br)c1cccc2ccccc12`, the “activity change, negative = inhibition” value was “inactive”.
Consider `COc1ccc(OC)c2sc(N(CCCN(C)C)C(=O)CCS(=O)(=O)c3ccccc3)nc12`, for which the AC50 is 20.1 µM.
Regarding `CC(C)C(=O)Nc1nnc(CCN2CCCCC2)s1`, the “activity change, negative = inhibition” value was “inactive”.
As to `Oc1cc(O)c(CN2CCOCC2)cc1CN1CCOCC1`, the AC50 was 19.5 µM.
`CC(C)c1nnc(NC(=O)CCC(=O)NCc2cccs2)s1`: the “activity change, negative = inhibition” value was “inactive”.
With `Cc1nc2ccccc2n1CC(=O)NC1CCCC1`, the “activity change, negative = inhibition” value is “inactive”.
Take `Cc1ccc2nc(N(CCCN(C)C)C(=O)c3sc4ccccc4c3Cl)sc2c1`: the “activity change, negative = inhibition” value was “inactive”.
On the same count and under the same terms, the result for `COc1ccc(CN(C)C(=O)c2cc(S(=O)(=O)N3CCCCCC3)ccc2OC)cc1OC` reads “inactive”.
Turning to `Cc1ccccc1-n1sc2cc(F)ccc2c1=O`, the AC50 was 5.9 µM.
On to `COc1ccc(CCNC(=O)CN2C(=O)NC3(CCCCC3C)C2=O)cc1` (centres undefined), for which the “activity change, negative = inhibition” value is “inactive”.
With `Cc1nn(S(=O)(=O)c2ccc(C(C)C)cc2)c(C)c1S(=O)(=O)N1CCOCC1`, the “activity change, negative = inhibition” value was “inactive”.
In the case of `O=C(O)C1CCc2sc3[nH]c(=S)n(-c4ccccc4)c(=O)c3c21` (centres undefined), the AC50 is 9.94 µM.
Consider `CCCCn1c(N)c(N(Cc2ccccc2OC)C(=O)c2sccc2C)c(=O)[nH]c1=O`, for which the “activity change, negative = inhibition” value was “inactive”.
Still for that read-out and setting: for `C#CCOCCOCCOCCNc1nc(N2CCN(C(=O)C([C@@H](C)O)n3cc([C@@H](N)CCCCN)nn3)CC2)nc(N2CCN(C(=O)[C@H](CCCCN)n3cc(CN)nn3)CC2)n1` (some centres undefined) the value was “inactive”; for `O=C(NCCCN1CCN(c2ccccc2F)CC1)C1CCC(=O)N1C1CCCCC1` (centres undefined), “inactive”.
Turning to `Cc1ccc2c(c1)C1C[N+](C)(CC(=O)c3ccc(Cl)cc3Cl)CCC1N2C(=O)c1ccc(F)cc1` (centres undefined), the AC50 is 13.4 µM.
As to `O=S(=O)(Nc1cc(Sc2ncn[nH]2)c(O)c2ccccc12)c1ccccc1`, the AC50 is 4.1 µM.
Turning to `COc1cc(NC(=O)C(Cc2ccccc2)n2cccc2)cc(OC)c1` (centres undefined), the “activity change, negative = inhibition” value was “inactive”.
As to `Cc1ccc(-n2c(O)c(C=NCc3ccccn3)c3ccccc3c2=O)cc1C`, the “activity change, negative = inhibition” value is “inactive”.
Turning to `Cc1ccc(S(=O)(=O)c2nc(-c3ccccc3)oc2N2CCC(C(N)=O)CC2)cc1`, the “activity change, negative = inhibition” value was “inactive”.
With `CN(C(=O)CCc1nc(-c2ccccc2F)no1)c1ccccc1`, the “activity change, negative = inhibition” value was “inactive”.
As to `NC(N)=N/N=C/c1ccc(OCc2ccccc2)c(OCc2ccccc2)c1`, the “activity change, negative = inhibition” value is “inactive”.
In the case of `Cc1ccc2sc(C)[n+](CCO)c2c1`, the “activity change, negative = inhibition” value was “inactive”.
As for `O=C1/C(=C/c2ccc(F)cc2)SC(=S)N1CC(=O)N1CCCCC1c1cccnc1` (centres undefined), the “activity change, negative = inhibition” value was “inactive”.
Take `O=C1CCC(=O)N1c1ccc(-c2nc3ccccc3s2)cc1`: the “activity change, negative = inhibition” value is “inactive”.
Same read-out and setting: the result for `O=C(O)C(Cc1ccccc1)N1C(=O)/C(=C/c2cccs2)SC1=S` (centres undefined) reads “inactive”.
As for `Cc1cc(C)c2c(=O)n(CC(=O)Nc3cccc(Cl)c3C)sc2n1`, the AC50 was 1.98 µM.
As for `Fc1ccc(NC(=S)Nc2ccc(Br)cc2)cc1`, the “activity change, negative = inhibition” value is “inactive”.
The same measure, in the same setting: the result for `CCc1nnc(NC(=O)CN2C(=O)c3ccccc3C2=O)s1` reads “inactive”.
`Cc1ccc(NC(=S)Nc2ccc(F)cc2)cc1C`: the “activity change, negative = inhibition” value is “inactive”.
Still for that read-out and setting: for `CC(=O)NC(CC(=O)NC1CCCc2ccccc21)c1ccccc1` (centres undefined) the value was “inactive”.
In the case of `COc1cc(-c2nnc(SCC(=O)OC3CCCCC3)o2)cc(OC)c1OC`, the “activity change, negative = inhibition” value is “inactive”.
For `CCOC(=O)/C=C/C(=O)Nc1cccc([N+](=O)[O-])c1`, the concentration at half-maximal activity (AC50) is 5.91 µM.
For the molecule `CC(=O)Nc1nnc(CCS(=O)(=O)c2ccc(C)c(C)c2)s1`, the “activity change, negative = inhibition” value was “inactive”.
For `CCN(CC)CCCNc1nc2cc(OC)c(OC)cc2c2nc(-c3cccnc3)nn12`, the “activity change, negative = inhibition” value was “inactive”.
`O=C(c1nnsc1S(=O)c1ccc(Cl)cc1)N1CCOCC1` (centres undefined): the AC50 was 6.04 µM.
On to `Cc1ccc(S(=O)(=O)/N=C2\C=C(NS(=O)(=O)c3ccccc3)C(=O)c3ccccc32)cc1`, for which the “activity change, negative = inhibition” value was “inactive”.
`CSc1c(SCc2ccccc2)cnn(-c2ccccc2)c1=O`: the “activity change, negative = inhibition” value was “inactive”.
Turning to `CCN1/C(=C/c2ccc3cc(C)ccc3[n+]2CC)Sc2cc(C)ccc21`, the “activity change, negative = inhibition” value was “inactive”.
Regarding `Cc1ccc(C2=NC(C)(C)N=C2SCC(=O)Nc2ccc(Cl)cc2)cc1`, the “activity change, negative = inhibition” value is “inactive”.
As to `COC(=O)c1cccc(N2C(=O)C(Cl)=C(N3CCOCC3)C2=O)c1`, the AC50 was 15.8 µM.
With `CCOc1cc(/C=N/NC(=O)CSc2nncn2C)ccc1OCc1cccc(C)c1`, the “activity change, negative = inhibition” value is “inactive”.
Consider `Oc1cc2c(cc1O)[C@H]1c3ccc(O)c(O)c3OC[C@@]1(O)C2`, for which the half-maximal activity concentration (AC50) was 7.81 µM.
Consider `O=C(NCc1ccncc1)C(=O)NCC(c1ccco1)N1CCN(c2ccc(F)cc2)CC1` (centres undefined), for which the “activity change, negative = inhibition” value was “inactive”.
Regarding `CCn1c(C)c(CS(=O)(=O)c2ccccc2)[nH]c1=O`, the AC50 was 11.3 µM.
On to `O=C(C[n+]1cc(-c2ccc(Cl)c(Cl)c2)n2c1CCC2)N1c2ccccc2Sc2ccccc21`, for which the “activity change, negative = inhibition” value is “inactive”.
Take `Cc1ccc(C(=O)NCC(=O)OCCOc2ccccc2Cl)cc1`: the “activity change, negative = inhibition” value is “inactive”.
On to `CCn1c(SCC(=O)Nc2ccc(Br)cc2)nc2sc3c(c2c1=O)CCN(C)C3`, for which the “activity change, negative = inhibition” value is “inactive”.
Still for that read-out and setting: for `COc1ccc(/C=C2/SC(=O)N(NS(=O)(=O)c3ccccc3)C2=S)cc1OC` the value was “inactive”; for `CCOC(=O)c1c(C)oc2c(CC(=O)c3ccccc3)c(Cl)c(O)c(O)c12`, “inactive”; for `N=C1c2ccccc2CN1NC(=O)c1ccccc1`, “inactive”.
As for `Cc1nnc(SC2CC(=O)N(c3ccccc3)C2=O)s1` (centres undefined), the AC50 was 17.5 µM.
Turning to `COCC(=O)OCC(=O)Nc1cc(C)c(C)cc1[N+](=O)[O-]`, the “activity change, negative = inhibition” value is “inactive”.
`CCOC(=O)c1c(CSC(=N)N)n(C)c2cc(Br)c(OC(C)=O)cc12`: the “activity change, negative = inhibition” value was “inactive”.
The same measure, in the same setting: the result for `O=C(NCC(=O)N1CCCCC1)c1ccc2ccccc2c1` reads “inactive”; that for `COc1ccc(N2CCN(C(=O)CNC(=O)Cc3ccccc3)CC2)cc1`, “inactive”; that for `CC1CCN(c2ccccc2NC(=O)c2cc([N+](=O)[O-])ccc2N2CCOCC2)CC1`, “inactive”.
Consider `O=C(/C=C/c1ccc(Cl)cc1)NCc1ccncc1`, for which the “activity change, negative = inhibition” value was “inactive”.
Take `CN(C)S(=O)(=O)Oc1ccccc1C(=O)Nc1ccccc1Cl`: the “activity change, negative = inhibition” value was “inactive”.
Consider `CC1CCc2c(sc(N)c2C(N)=O)C1` (centres undefined), for which the AC50 is 20.5 µM.
